Experimental findings from ChEMBL document CHEMBL3352654, “Synthesis, biological evaluation and SAR analysis of O-alkylated analogs of quercetin for anticancer” (Bioorg Med Chem Lett, 2014) are described below.

Holding throughout (type): functional, cell-based
The subject of assay [1] is NCI-H157. Briefly: Anticancer activity against human NCI-H157 cells by HTS assay.
Assay [2] deals with NCI-H1792. Briefly: Anticancer activity against human NCI-H1792 cells by HTS assay.
A short description of assay [3]: Anticancer activity against human M4E cells by HTS assay.
A short description of assay [4]: Anticancer activity against human H1299 cells by HTS assay. To be noted: NCI-H1299.
Assay [5] can be described thus: Anticancer activity against human 292G cells by HTS assay.
Assay [6] is described as follows: Anticancer activity against human SKBR cells by HTS assay.
Assay [7] concerns NCI-H522. Briefly: Anticancer activity against human NCI-H522 cells by HTS assay.
The nature of assay [8]: Anticancer activity against human NCI-H1944 cells by HTS assay.
Assay [9] is described as follows: Anticancer activity against human […] cells by HTS assay.
Assay [10] is described as follows: Anticancer activity against human H460 cells by HTS assay. To be noted: NCI-H460.
Assay [11] has as its system HOP-62. Briefly: Anticancer activity against human HOP62 cells by HTS assay.
Assay [12] is described as follows: Anticancer activity against human Calu1 cells by HTS assay. To be noted: Calu-1.
Assay [13] relates to HeLa. Briefly: Anticancer activity against human HeLa cells by HTS assay.
The subject of assay [14] is M14. Briefly: Anticancer activity against human M14 cells by HTS assay.
Assay [15] in a line: Anticancer activity against human LOXIMVI cells by HTS assay. The conditions noted are these: LOX IMVI.
Assay [16] deals with A549. Briefly: Anticancer activity against human A549 cells by HTS assay.

Each structure is given as a SMILES string. A value given as a limit tells only on which side of the number the result lay.

In the case of `CCOc1c(-c2ccc(O)c(O)c2)oc2cc(O)cc(O)c2c1=O`, the 50% inhibitory concentration (IC50) in assay [1], in assay [2], in assay [3], in assay [4], in assay [5] and in assay [6] was greater than 50 µM each time. Also, the IC50 was greater than 50 µM in [7]; 0.39 µM in assay [8]; greater than 50 µM in assay [9]; greater than 50 µM in assay [10]; greater than 50 µM in [11]; greater than 50 µM in assay [12]. For the same molecule, the concentration for half-maximal inhibition (IC50) in [13], in assay [14], in [15] and in assay [16] was greater than 50 µM in each case.
With `COc1ccc(-c2oc3cc(O)cc(O)c3c(=O)c2O)cc1O` [TAMARIXETIN], the IC50 in [1] was 3.04 µM; in assay [2] it was 4.06 µM; in assay [3], 19.9 µM; in assay [4] it was 22 µM; in assay [5], 12.5 µM; in assay [6] it was 7.97 µM. Also, the IC50 in assay [7] is greater than 50 µM; in [8] it was 3.86 µM; in assay [9], 7.57 µM; in assay [10], 4.45 µM; in assay [11], 9.93 µM; in assay [12], 24.9 µM. For the same molecule, the IC50 in assay [13] is 1.81 µM; in [14], 14.8 µM; in assay [15] it was greater than 50 µM; in [16], 2.63 µM.
In the case of `CCCCOc1cc(O)c2c(=O)c(OCCCC)c(-c3ccc(OCCCC)c(O)c3)oc2c1`, the IC50 in assay [1], in assay [2], in assay [3], in assay [4], in [5] and in assay [6] was greater than 50 µM each time. The IC50 in assay [7], in assay [8], in assay [9], in assay [10], in assay [11] and in assay [12] was greater than 50 µM throughout. In addition, the concentration for half-maximal inhibition (IC50) is 6.62 µM in [13], greater than 50 µM in [14], greater than 50 µM in assay [15] and 31.5 µM in assay [16].
In the case of `CCCCOc1cc(O)c2c(=O)c(OCCCC)c(-c3ccc(OCCCC)c(OCCCC)c3)oc2c1`, the IC50 in assay [1], in [2], in assay [3], in assay [4], in [5] and in [6] was greater than 50 µM in each case. In addition, the IC50 in assay [7], in [8], in assay [9], in assay [10], in assay [11] and in assay [12] was greater than 50 µM in each case. In addition, the IC50 was greater than 50 µM in assay [13], greater than 50 µM in assay [14], greater than 50 µM in assay [15] and 48.4 µM in assay [16].
For `CCCOc1cc(O)c2c(=O)c(O)c(-c3ccc(OCCC)c(O)c3)oc2c1`, the IC50 in assay [1] is 0.84 µM; in [2], 3.63 µM; in assay [3] it was 5.77 µM; in [4], 4.84 µM; in [5] it was 5.31 µM; in assay [6] it was 4.72 µM. In addition, the IC50 was 8.14 µM in [7]; 4.42 µM in assay [8]; 5.63 µM in assay [9]; 1.14 µM in assay [10]; 3.28 µM in [11]; 9.39 µM in assay [12]. In addition, the IC50 in assay [13] stood at 5.18 µM; in assay [14], 7.61 µM; in [15], 3.68 µM; in assay [16], 4.02 µM.
Regarding `CCCCOc1c(-c2ccc(O)c(O)c2)oc2cc(O)cc(O)c2c1=O`, the IC50 is 6.32 µM in assay [1]; 4.57 µM in [2]; 18.9 µM in [3]; greater than 50 µM in assay [4]; 28.9 µM in assay [5]; 9.18 µM in assay [6]. In addition, the IC50 is 12.6 µM in assay [7]; 7.04 µM in assay [8]; 31.7 µM in assay [9]; 19.7 µM in assay [10]; 21 µM in assay [11]; greater than 50 µM in assay [12]. Besides, the IC50 worked out at 10.6 µM in assay [13], 25.6 µM in assay [14], 26.3 µM in [15] and 13.4 µM in [16].
Turning to `CCOc1cc(O)c2c(=O)c(O)c(-c3ccc(OCC)c(O)c3)oc2c1`, the IC50 in assay [1] is greater than 50 µM; in [2] it was greater than 50 µM; in [3], greater than 50 µM; in assay [4], 21.8 µM; in assay [5], greater than 50 µM; in assay [6], greater than 50 µM. In addition, the IC50 was 7.21 µM in [7]; 42.4 µM in [8]; 25.5 µM in [9]; 9.7 µM in [10]; 30.2 µM in [11]; greater than 50 µM in assay [12]. In addition, the IC50 in assay [13] was 20.2 µM; in assay [14], greater than 50 µM; in [15], 49.4 µM; in assay [16] it was 22.6 µM.
As for `CCCOc1c(-c2ccc(O)c(O)c2)oc2cc(O)cc(O)c2c1=O`, the IC50 in [1] was determined as 0.8 µM; in [2], 3.13 µM; in assay [3] it was 1.9 µM; in assay [4] it was 6.03 µM; in assay [5] it was 2.11 µM; in assay [6], 0.45 µM. Moreover, the 50% inhibitory concentration (IC50) was determined as 1.4 µM in assay [7]; 0.91 µM in assay [8]; 3.02 µM in assay [9]; 1.69 µM in assay [10]; 2.44 µM in assay [11]; 7.08 µM in assay [12]. For the same molecule, the IC50 in assay [13] worked out at 0.57 µM; in [14], 2.26 µM; in [15], 2.38 µM; in assay [16], 0.79 µM.
With `CCOc1cc(O)c2c(=O)c(OCC)c(-c3ccc(OCC)c(O)c3)oc2c1`, the IC50 in [1] was greater than 50 µM; in [2] it was greater than 50 µM; in assay [3] it was 18 µM; in assay [4] it was 48.5 µM; in [5], greater than 50 µM; in assay [6], 6.66 µM. In addition, the IC50 was greater than 50 µM in assay [7]; 4.72 µM in assay [8]; greater than 50 µM in assay [9]; 15.6 µM in assay [10]; 36.3 µM in [11]; greater than 50 µM in assay [12]. Moreover, the half-inhibitory concentration (IC50) in assay [13] was 14.6 µM; in [14], greater than 50 µM; in assay [15], greater than 50 µM; in assay [16], 22.6 µM.
For `CCCCOc1cc(O)c2c(=O)c(OCCCC)c(-c3ccc(O)c(O)c3)oc2c1`, the IC50 was determined as 5.92 µM in assay [1]; 6.03 µM in [2]; 11.2 µM in assay [3]; 5.05 µM in [4]; 8.75 µM in assay [5]; 4.58 µM in assay [6]. The IC50 is greater than 50 µM in assay [7]; 1.17 µM in assay [8]; 8.92 µM in assay [9]; 3.05 µM in assay [10]; 4.68 µM in assay [11]; 5.46 µM in assay [12]. Moreover, the IC50 was found to be 6.09 µM in [13], 3.47 µM in assay [14], 2.55 µM in [15] and 1.13 µM in [16].
Take `CCOc1cc(O)c2c(=O)c(OCC)c(-c3ccc(O)c(O)c3)oc2c1`: the half-inhibitory concentration (IC50) came out at 8.09 µM in [1]; 2.51 µM in [2]; 20.4 µM in assay [3]; 12.8 µM in assay [4]; 17.2 µM in assay [5]; 6.26 µM in [6]. Further, the IC50 in [7] is greater than 50 µM; in assay [8] it was 10.1 µM; in assay [9], 29.1 µM; in [10], 5.25 µM; in assay [11] it was 10.6 µM; in assay [12], 37.4 µM. Also, the half-maximal inhibitory concentration (IC50) in assay [13] amounted to 0.91 µM; in [14], 20.3 µM; in assay [15], 15.2 µM; in [16], 1.19 µM.
Turning to `CCCOc1cc(O)c2c(=O)c(OCCC)c(-c3ccc(OCCC)c(OCCC)c3)oc2c1`, the IC50 in assay [1], in assay [2], in [3], in assay [4], in assay [5] and in [6] was greater than 50 µM in each case. In addition, the IC50 in assay [7], in assay [8], in assay [9], in assay [10], in assay [11] and in assay [12] was greater than 50 µM in each case. Moreover, the IC50 in assay [13] is greater than 50 µM; in [14] it was greater than 50 µM; in [15] it was greater than 50 µM; in [16], 47.9 µM.
On to `COc1cc(O)c2c(=O)c(OC)c(-c3ccc(OC)c(O)c3)oc2c1` [AYANIN], for which the IC50 in [1] was 18.6 µM; in [2], greater than 50 µM; in [3] it was 16.2 µM; in [4] it was greater than 50 µM; in assay [5], greater than 50 µM; in assay [6], 10.8 µM. Moreover, the IC50 in assay [7] was 20.2 µM; in assay [8], 21.9 µM; in assay [9], greater than 50 µM; in assay [10] it was 12.8 µM; in assay [11] it was 20.1 µM; in assay [12], greater than 50 µM. Moreover, the IC50 in assay [13] amounted to 19.5 µM; in assay [14], 37.1 µM; in assay [15] it was 46 µM; in [16] it was 20.8 µM.
Regarding `COc1c(-c2ccc(O)c(O)c2)oc2cc(O)cc(O)c2c1=O` [3-O-METHYLQUERCETIN], the IC50 in assay [1] came out at 18.7 µM; in [2] it was 24.1 µM; in [3] it was 38.6 µM; in assay [4], 46.8 µM; in [5], 49.5 µM; in assay [6], 13.9 µM. The IC50 in assay [7] was greater than 50 µM; in [8], 23.6 µM; in assay [9] it was greater than 50 µM; in [10], 9.91 µM; in assay [11] it was 35.5 µM; in [12], greater than 50 µM. In addition, the half-inhibitory concentration (IC50) in [13] was 6.09 µM; in [14] it was greater than 50 µM; in assay [15], greater than 50 µM; in [16] it was 8.14 µM.

By IC50 is commonly meant the concentration needed to halve the response being measured. A lower IC50 goes with greater potency.
